Results reported in patent publication US9216173B2, “2-Pyridyl carboxamide-containing spleen tyrosine kinase (SYK) inhibitors” (Merck Sharp & Dohme Corp., priority 2011, dated 2015).

Target: T1, recombinant human GST-SYK (Homo sapiens, UniProt P43405)
T1 construct: purchased Carna Biosciences 08-176
Assay: Homogeneous Time-Resolved Fluorescence (HTRF) assay for the recombinant human Syk enzyme
Format: biochemical
Conditions: GST-hSYK 5 pM, ATP 25 μM, 10-dose titration 10 μM to 0.508 nM; read-out: IC50
Method in brief: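 GST-hSYK fusion phosphorylates a peptide for 45 min at room temperature. Quenched with EDTA buffer containing 2 nM Eu-anti-phosphotyrosine antibody and 70 nM SA-APC. HTRF signal read after 30 min.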

IC50 [nM]	SMILES
770	Cc1cc(C)nc(Nc2cc(N[C@@H]3C[C@H]3N)cnc2C(N)=O)c1 (relative stereo) [Example 2.13, rel-5-{[(1R,2R)-2-aminocyclopropyl]amino}-3-[(4,6-dimethylpyridin-2-yl)amino]pyridine-2-carboxamide]
3.9	Cc1nc(Nc2cc(N[C@@H]3CCCC[C@@H]3N)cnc2C(N)=O)ccc1-c1ccccc1 [Example 3.2, 5-{[(1R,2S)-2-aminocyclohexyl]amino}-3-[(6-methyl-5-phenylpyridin-2-yl)amino]pyridine-2-carboxamide]

Same assay, conditions: GST-hSYK 5 pM, ATP 25 μM, 10-dose titration 10 μM to 0.508 nM; read-out: rhSYK Activity (IC50 rating)

SMILES	IC50 [nM]
Cc1cc(C)nc(Nc2cc(NCC3(N)CCS(=O)(=O)CC3)cnc2C(N)=O)c1 [Example 1.29, 5-{[(4-amino-1,1-dioxidotetrahydro-2H-thiopyran-4-yl)methyl]amino}-3-[(4,6-dimethylpyridin-2-yl)amino]pyridine-2-carboxamide]	10 to 100
NC(=O)c1ncc(N[C@@H]2CCCC[C@@H]2N)cc1Nc1cccc(-c2ccncc2)n1 [Example 1.27, 5-{[(1R,2S)-2-aminocyclohexyl]amino}-3-(2,4′-bipyridin-6-ylamino)pyridine-2-carboxamide]	< 10
CSCC(N)CNc1cnc(C(N)=O)c(Nc2cc(C)cc(C)n2)c1 (centres unmarked) [Example 2.8, 5-{[2-amino-3-(methylsulfanyl)propyl]amino}-3-[(4,6-dimethylpyridin-2-yl)amino]pyridine-2-carboxamide]	< 10
Cc1cc(C)nc(Nc2cc(N[C@@H]3C[C@H]3N)cnc2C(N)=O)c1 (relative stereo) [Example 2.13, rel-5-{[(1R,2R)-2-aminocyclopropyl]amino}-3-[(4,6-dimethylpyridin-2-yl)amino]pyridine-2-carboxamide]	100 to 1000
Cn1ccc(Nc2cc(N[C@@H]3CCCC[C@@H]3N)cnc2C(N)=O)n1 [Example 1.33, 5-{[(1R,2S)-2-aminocyclohexyl]amino}-3-[(1-methyl-1H-pyrazol-3-yl)amino]pyridine-2-carboxamide]	10 to 100
Cc1ccc(-n2ccc(Nc3cc(N[C@@H]4CCCC[C@@H]4N)cnc3C(N)=O)n2)cc1 [Example 1.64, 5-{[(1R,2S)-2-aminocyclohexyl]amino}-3-{[1-(4-methylphenyl)-1H-pyrazol-3-yl]amino}pyridine-2-carboxamide]	< 10
Cc1cc(Nc2cc(N[C@@H]3CCCC[C@@H]3N)cnc2C(N)=O)nc(-c2cnn3c2CCCC3)c1 [Example 1.113, 5-{[(1R,2S)-2-aminocyclohexyl]amino}-3-{[4-methyl-6-(4,5,6,7-tetrahydropyrazolo[1,5-a]pyridin-3-yl)pyridin-2-yl]amino}pyridine-2-carboxamide]	< 10
Cc1nc(Nc2cc(NC[C@H](C)N)cnc2C(N)=O)ccc1Br [Example 2.2, 5-{[(2S)-2-aminopropyl]amino}-3-[(5-bromo-6-methylpyridin-2-yl)amino]pyridine-2-carboxamide]	< 10
NC(=O)c1ncc(N[C@H]2[C@@H](N)CCCC2(F)F)cc1Nc1cccc(C(F)(F)F)n1 [Example 1.106, 5-{[(1S,6S)-6-amino-2,2-difluorocyclohexyl]amino}-3-{[6-(trifluoromethyl)pyridin-2-yl]amino}pyridine-2-carboxamide]	< 10
CCc1cccc(Nc2cc(N[C@@H]3CS(=O)(=O)CC[C@@H]3N)cnc2C(N)=O)n1 (relative stereo) [Example 1.91, rel-5-{[(3S,4S)-4-amino-1,1-dioxidotetrahydro-2H-thiopyran-3-yl]amino}-3-[(6-ethylpyridin-2-yl)amino]pyridine-2 carboxamide]	< 10
Cc1cc(C)nc(Nc2cc(NC(=O)CN)cnc2C(N)=O)c1 [Example 10, 3-[(4,6-dimethylpyridin-2-yl)amino]-5-(glycylamino)pyridine-2-carboxamide]	100 to 1000
Cc1cc(C)n2nc(Nc3cc(N[C@@H]4CCCC[C@@H]4N)cnc3C(N)=O)cc2n1 [Example 1.55, 5-{[(1R,2S)-2-aminocyclohexyl]amino}-3-[(5,7-dimethylpyrazolo[1,5-a]pyrimidin-2-yl)amino]pyridine-2-carboxamide]	< 10
Cc1cc(C)nc(Nc2cc(N[C@@H]3CCOC[C@@H]3N)cnc2C(N)=O)c1 [Example 1.130, 5-{[(3R,4R)-3-aminotetrahydro-2H-pyran-4-yl]amino}-3-[(4,6-dimethylpyridin-2-yl)amino]pyridine-2-carboxamide]	< 10
NC(=O)c1ncc(N[C@@H]2CCCC[C@@H]2N)cc1Nc1cccc(F)n1 [Example 1.48, 5-{[(1R,2S)-2-aminocyclohexyl]amino}-3-[(6-fluoropyridin-2-yl)amino]pyridine-2-carboxamide]	< 10
NC(=O)c1ncc(N[C@@H]2CCCC[C@@H]2N)cc1Nc1ccnc(C2CC2)n1 [Example 1.129, 5-{[(1R,2S)-2-aminocyclohexyl]amino}-3-[(2-cyclopropylpyrimidin-4-yl)amino]pyridine-2-carboxamide]	< 10
Cc1cc(C)nc(Nc2cc(N[C@H]3CS(=O)(=O)C[C@@H]3N)cnc2C(N)=O)c1 (relative stereo) [Example 2.6, rel-5-{[(3R,4R)-4-amino-1,1-dioxidotetrahydrothiophen-3-yl]amino}-3-[(4,6-dimethylpyridin-2-yl)amino]pyridine-2-carboxamide]	100 to 1000
Cc1nc(Nc2cc(N[C@@H]3CCCC[C@@H]3N)cnc2C(N)=O)ccc1-n1nccn1 [Example 1.67, 5-{[(1R,2S)-2-aminocyclohexyl]amino}-3-{[6-methyl-5-(2H-1,2,3-triazol-2-yl)pyridin-2-yl]amino}pyridine-2-carboxamide]	< 10
NC(=O)c1ncc(N[C@@H]2CCCC[C@@H]2N)cc1Nc1ccncn1 [Example 1.123, 5-{[(1R,2S)-2-aminocyclohexyl]amino}-3-(pyrimidin-4-ylamino)pyridine-2-carboxamide]	100 to 1000
Cc1cc(C)nc(Nc2cc(NCC(N)C(=O)N(C)C)cnc2C(N)=O)c1 (centres unmarked) [Example 2.9, 5-{[2-amino-3-(dimethylamino)-3-oxopropyl]amino}-3-[(4,6-dimethylpyridin-2-yl)amino]pyridine-2-carboxamide]	100 to 1000
NC(=O)c1ncc(N[C@@H]2CCCC[C@@H]2N)cc1Nc1ccn(-c2ccccn2)n1 [Example 1.81, 5-{[(1R,2S)-2-aminocyclohexyl]amino}-3-[(1-pyridin-2-yl-1H-pyrazol-3-yl)amino]pyridine-2-carboxamide]	< 10
Cc1cc(Nc2cc(N[C@@H]3CCCC[C@@H]3N)cnc2C(N)=O)nc(-c2cnn(C)c2)c1 [Example 1.110, 5-{[(1R,2S)-2-aminocyclohexyl]amino}-3-{[4-methyl-6-(1-methyl-1H-pyrazol-4-yl)pyridin-2-yl]amino}pyridine-2-carboxamide]	< 10
CN1CCN(c2cccc(Nc3cc(N[C@@H]4CCCC[C@@H]4N)cnc3C(N)=O)n2)CC1 [Example 1.119, 5-{[(1R,2S)-2-aminocyclohexyl]amino}-3-{[6-(4-methylpiperazin-1-yl)pyridin-2-yl]amino}pyridine-2-carboxamide]	< 10
Cn1ncc2c(Nc3cc(N[C@@H]4CCCC[C@@H]4N)cnc3C(N)=O)nc(-c3ccccc3)nc21 [Example 1.69, 5-{[(1R,2S)-2-aminocyclohexyl]amino}-3-[(1-methyl-6-phenyl-1H-pyrazolo[3,4-d]pyrimidin-4-yl)amino]pyridine-2-carboxamide]	< 10
CCn1ccc(Nc2cc(N[C@@H]3CCCC[C@@H]3N)cnc2C(N)=O)n1 [Example 1.49, 5-{[(1R,2S)-2-aminocyclohexyl]amino}-3-[(1-ethyl-1H-pyrazol-3-yl)amino]pyridine-2-carboxamide]	10 to 100

Next, values leading:

IC50 [nM]	SMILES
< 10	Cc1nc(Nc2cc(N[C@@H]3CCCC[C@@H]3N)cnc2C(N)=O)ccc1-c1cncnc1 [Example 3.25, 5-{[(1R,2S)-2-aminocyclohexyl]amino}-3-[(6-methyl-5-pyrimidin-5-ylpyridin-2-yl)amino]pyridine-2-carboxamide]
< 10	Cc1nc(Nc2cc(N[C@@H]3CCCC[C@@H]3N)cnc2C(N)=O)ccc1-c1ccc(C(O)C(F)F)cc1 (stereo partly drawn) [Example 3.8, 5-{[(1R,2S)-2-aminocyclohexyl]amino}-3-({5-[4-(2,2-difluoro-1-hydroxyethyl)phenyl]-6-methylpyridin-2-yl}amino)pyridine-2-carboxamide]
< 10	Cc1nc(Nc2cc(N[C@@H]3CCCC[C@@H]3N)cnc2C(N)=O)ccc1-c1cccc(C(=O)O)c1 [Example 3.6, 3-{6-[(5-{[(1R,2S)-2-aminocyclohexyl]amino}-2-carbamoylpyridin-3-yl)amino]-2-methylpyridin-3-yl}benzoic acid]
< 10	COc1ncccc1-c1ccc(Nc2cc(N[C@@H]3CCCC[C@@H]3N)cnc2C(N)=O)nc1C [Example 3.26, 5-{[(1R,2S)-2-aminocyclohexyl]amino}-3-[(2′-methoxy-2-methyl-3,3′-bipyridin-6-yl)amino]pyridine-2-carboxamide]
< 10	Cc1nc(Nc2cc(N[C@@H]3CCCC[C@@H]3N)cnc2C(N)=O)ccc1-c1ccc2c(c1)C(=O)NC2 [Example 3.16, 5-{[(1R,2S)-2-aminocyclohexyl]amino}-3-{[6-methyl-5-(3-oxo-2,3-dihydro-1H-isoindol-5-yl)pyridin-2-yl]amino}pyridine-2-carboxamide]
< 10	Cc1nc(Nc2cc(N[C@@H]3CCCC[C@@H]3N)cnc2C(N)=O)ccc1-c1ccc(CO)cc1 [Example 3.7, 5-{[(1R,2S)-2-aminocyclohexyl]amino}-3-({5-[4-(hydroxymethyl)phenyl]-6-methylpyridin-2-yl}amino)pyridine-2-carboxamide]
< 10	Cc1nc(Nc2cc(N[C@@H]3CCCC[C@@H]3N)cnc2C(N)=O)ccc1-c1ccccc1 [Example 3.2, 5-{[(1R,2S)-2-aminocyclohexyl]amino}-3-[(6-methyl-5-phenylpyridin-2-yl)amino]pyridine-2-carboxamide]
< 10	Cc1nc(Nc2cc(N[C@@H]3CCCC[C@@H]3N)cnc2C(N)=O)ccc1-c1ccc2nnn(C)c2c1 [Example 3.9, 5-{[(1R,2S)-2-aminocyclohexyl]amino}-3-{[6-methyl-5-(1-methyl-1H-benzotriazol-6-yl)pyridin-2-yl]amino}pyridine-2-carboxamide]
< 10	Cc1nc(Nc2cc(N[C@@H]3CCCC[C@@H]3N)cnc2C(N)=O)ccc1OC(C)C [Example 5.1, 5-{[(1R,1S)-2-aminocyclohexyl]amino}-3-{[6-methyl-5-(propan-2-yloxy)pyridin-2-yl]amino}pyridine-2-carboxamide]
